Measurements as given in article PMC8533986, “[^99mTc]Tc-DB15 in GRPR-Targeted Tumor Imaging with SPECT: From Preclinical Evaluation to the First Clinical Outcomes” (Cancers, 2021).

Tests used:
[1] = molecular target: T1, human GRPR (Homo sapiens, UniProt P30550); assay: Competition binding assay, displacement of [125I]I-[Tyr4]BBN from PC-3 cell membranes; conditions: PC-3 cell membrane homogenates, 1 h at 22 °C, pH 7.4, mean ± SD of three experiments in triplicate, read-out: IC50, binding affinity for the human GRPR
T1 construct: displacement of the [^125I]I-[Tyr^4]BBN radioligand from freshly harvested PC-3 cell membranes; host or cells: PC-3 human prostate adenocarcinoma cells (membrane homogenate)
Procedure: 2.4. Competition Binding Assays in PC-3 Cell-Membranes
Rapid filtration through glass fiber filters (Whatman GF/B, presoaked in binding buffer for at least 1 h) on a Brandel Cell Harvester (Adi Hassel Ingenieur Büro, Munich, Germany) and rinsing with ice-cold washing buffer (10 mM HEPES pH 7.4, 150 mM NaCl) followed. Filter radioactivity was measured in a gamma counter (automated multi-sample well-type instrument with a NaI(Tl) 3” crystal, Canberra Packard Cobra^TM Quantum U5003/1, Auto-Gamma® counting system). […] Values are expressed as mean ± standard deviation (SD) of three experiments performed in triplicate.

[2] = tested on: PC-3 cells; assay: Time-dependent uptake of [99mTc]Tc-DB15 in PC-3 cells; assay type: cell-based, human
Procedure: (§1) 2.5. Time-Dependent Uptake of [^99mTc]Tc-DB15 in PC-3 and T-47D Cells
(§2) One day before the experiment, PC-3 or T-47D cells were seeded in 6-well plates (≈1 × 10^6 cells per well). Next day, the cells were rinsed with ice-cold internalization medium (IM, RPMI-1640 GlutaMAX-I, supplemented by 1% (v/v) FBS). […] [^99mTc]Tc-DB15 (250 fmol total peptide in 150 µL 0.5% BSA-PBS) was added in all wells and the plates were incubated at for 15 min, 30 min, 1 h and 2 h at 37 °C in an Incubator-Orbital Shaker unit (MPM Instr. SrI, Bernareggio, MI, Italy). Cells were then placed on ice, the medium was collected, and the plates were rinsed with 0.5% BSA-PBS (1 mL). Membrane-bound fractions were collected after treatment in acid-wash solution (2 × 600 µL; 50 mM glycine buffer pH 2.8, 0.1 M NaCl). Internalized fractions were collected after treatment with 1 N NaOH (2 × 600 µL), as previously described. After counting of radioactivity of all collected fractions in the gamma counter, the percentage of specific internalized and membrane-bound fractions per time point were calculated with Microsoft Excel and the respective curves were drawn. Specific internalized and membrane-bound counts were determined by subtracting the respective non-specific from the respective total counts. Results represent specific internalized ±SD of total added radioactivity per well from three experiments performed in triplicate.

[3] = tested on: T-47D cells; assay: Time-dependent uptake of [99mTc]Tc-DB15 in T-47D cells; assay type: cell-based, human
Procedure: as §1, §2

[4] = tested on: BC patients; conditions: two advanced BC patients, imaging 15 min-24 h pi
Procedure: Two BC patients were tested for the potential of pathological lesion detection after injection of [^99mTc]Tc-DB15.
A single dose of [^99mTc]Tc-DB15 (5-mL, 700–800 MBq corresponding to 20 μg DB15) was administered as a slow intravenous (iv) injection over 1 min. Vital signs (pulse rate, systolic and diastolic BP) were measured prior to the injection of [^99mTc]DB15 as well as within 15 min pi. Likewise, ECGs were performed prior to the injection, continuously during the injection and for 15 min pi. ECG and vital signs were measured again after the last scan was completed and blood tests for hematology and biochemistry (glucose, creatinine, bilirubin, transaminases, sodium, potassium, calcium) were performed. The laboratory evaluation was repeated 7, 14 and 28 days after imaging. Adverse events (AEs) were assessed and graded according to National Cancer Institute Common Toxicity Criteria for Adverse Events (CTCAE) Version 3.0.
Gamma camera imaging was performed on a Symbia Intevo Bold dual-head SPECT/CT scanner (Siemens Healthineers AG; Erlangen, Germany) equipped with a 16-slice CT scanner. Planar imaging of the whole body and SPECT/CT images of the thorax were obtained 15 min, 1 h, 3 h, and 24 h pi. Planar and SPECT/CT images were inspected for increased uptake by two experienced nuclear medicine specialists.

[5] = 30 min incubation, 37 °C, 250 fmol total peptide, mean ± SD, three experiments in triplicate
[6] = all time points (15 min-2 h), results not shown

T1 sequence (P30550 whole entry): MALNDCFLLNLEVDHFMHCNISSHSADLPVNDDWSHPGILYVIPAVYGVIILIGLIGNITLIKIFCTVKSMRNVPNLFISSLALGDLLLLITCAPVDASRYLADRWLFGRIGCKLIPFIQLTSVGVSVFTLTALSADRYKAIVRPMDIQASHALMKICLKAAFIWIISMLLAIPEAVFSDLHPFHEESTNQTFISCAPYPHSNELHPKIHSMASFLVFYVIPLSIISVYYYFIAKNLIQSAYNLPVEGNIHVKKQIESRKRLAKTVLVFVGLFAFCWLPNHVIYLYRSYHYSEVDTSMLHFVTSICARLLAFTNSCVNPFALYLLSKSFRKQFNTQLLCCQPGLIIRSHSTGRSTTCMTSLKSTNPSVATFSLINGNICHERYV

IC50 [1] | Compound | portion found within the cells (internalized) ([2]; 37 °C) | specific cell uptake (cell-associated fraction of total added activity) [2, 5] | cell association in the presence of 1 μM [Tyr4]BBN [2, 6] | portion found within the cells (internalized) ([3]; 37 °C) | specific cell uptake (cell-associated fraction of total added activity) [3, 5] | cell association in the presence of 1 μM [Tyr4]BBN [3, 6] | Pathological findings on planar and SPECT/CT images [4]
370 ± 30 pM | CCNC(=O)[C@H](CC(C)C)NC(=O)[C@H](Cc1c[nH]cn1)NC(=O)CN(C)C(=O)[C@@H](NC(=O)[C@H](C)NC(=O)[C@H](Cc1c[nH]c2ccccc12)NC(=O)[C@H](CCC(N)=O)NC(=O)[C@@H](Cc1ccccc1)NC(=O)COCC(=O)Nc1ccc(CNC(=O)C(CNCCN)CNCCN)cc1)C(C)C [DB15, N4-AMA-DGA-DPhe^6,Sar^11,LeuNHEt^13]BBN(6-13)] |  |  |  |  |  |  | 
 | [^99mTc]Tc-N4-AMA-DGA-DPhe^6,Sar^11,LeuNHEt^13]BBN(6-13) [[^99mTc]Tc-DB15] | < 6% | 13.1 ± 0.1% | < 0.9% | < 6% | 24.2 ± 0.7% | < 0.9% | increased uptake of [^99mTc]Tc-DB15 in the BC metastases in both patients
